Data as given in patent US8735406B2, “8-oxodihydropurine derivative” (Dainippon Sumitomo Pharma Co., Ltd., priority 2009, dated 2014).
Structures can show the parent of a compound that is named as a salt.

Molecular target: T1, FAAH (Rattus norvegicus, UniProt P97612)
T1 construct: Preparation of Rat Brain Membranes Preparations (FAAH Enzyme Solution); from tissue; host or cells: rat cerebrum (brain membrane preparation)
T1 sequence (P97612 1-579): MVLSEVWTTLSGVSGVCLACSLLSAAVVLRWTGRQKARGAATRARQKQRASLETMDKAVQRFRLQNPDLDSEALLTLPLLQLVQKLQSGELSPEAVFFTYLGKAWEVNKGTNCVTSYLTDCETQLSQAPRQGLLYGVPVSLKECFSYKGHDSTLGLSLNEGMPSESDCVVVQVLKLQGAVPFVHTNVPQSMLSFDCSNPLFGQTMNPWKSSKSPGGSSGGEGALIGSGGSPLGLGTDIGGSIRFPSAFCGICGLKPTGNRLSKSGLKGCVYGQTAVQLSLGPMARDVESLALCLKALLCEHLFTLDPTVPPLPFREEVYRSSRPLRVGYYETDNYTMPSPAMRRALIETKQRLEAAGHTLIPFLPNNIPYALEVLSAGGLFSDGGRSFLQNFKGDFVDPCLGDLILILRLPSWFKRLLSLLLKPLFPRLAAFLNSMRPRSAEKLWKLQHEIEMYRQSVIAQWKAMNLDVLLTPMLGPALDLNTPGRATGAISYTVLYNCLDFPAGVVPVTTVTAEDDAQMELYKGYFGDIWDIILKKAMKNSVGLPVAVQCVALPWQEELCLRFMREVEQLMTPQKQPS
Assay: Determination of FAAH inhibitory activity in rat (rat brain membrane preparations, [3H]-anandamide hydrolysis)
Assay type: biochemical
Conditions: rat brain membrane preparations; for inhibition at 0.1 µM: 100 nM test substance, read-out: FAAH Inhibition, Inhibition Rate at 100 nM; for IC50: test substance 0.1 nM to 1 μM, read-out: FAAH Inhibition IC50
Method in brief: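 Compounds tested from 0.1 nM to 1 μM to derive IC50 against FAAH hydrolysis in rat brain membrane preparations (100 μg/mL). A 10-min 37 °C preincubation was followed by 10 min with [3H]-anandamide (2 nM) mixed with 2 μM unlabelled anandamide. Radioactive ethanolamine was extracted into the water/methanol layer and counted.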

Row | inhibition at 0.1 µM [%] | IC50 [nM] | SMILES
1 | 94 | 24 | COc1cccc(Cc2ncc3c(n2)n(C)c(=O)n3C(=O)N2CCC2)c1 [Example 375, 7-(Azetidin-1-ylcarbonyl)-2-(3-methoxybenzyl)-9-methyl-7,9-dihydro-8H-purine-8-one]
2 | 96 | 13 | Cn1c(=O)n(C(=O)N2CCC2)c2cnc(Cc3cccc(C(F)(F)F)c3)nc21 [Example 379, 7-(Azetidin-1-ylcarbonyl)-9-methyl-2-[3-(trifluoromethyl)benzyl]-7,9-dihydro-8H-purine-8-one]
3 | 84 | 8 | COCCCc1ncc2c(n1)n(C)c(=O)n2C(=O)N1CC(c2ccc(F)cc2)C1 [Example 381]
4 | 80 | 5 | COCCCc1ncc2c(n1)n(C)c(=O)n2C(=O)N1CC(c2cccc(F)c2)C1 [Example 382]
5 | 99 | 5 | CCOc1ccc(C2CN(C(=O)n3c(=O)n(C)c4nc(CCCOC)ncc43)C2)cc1 [Example 385]
6 | 93 | 7 | COCCCc1ncc2c(n1)n(C)c(=O)n2C(=O)N1CC(c2cccc(C(F)(F)F)c2)C1 [Example 386]
7 | 94 | 7 | CN(C)C(=O)n1c(=O)n(C)c2cnc(CCCOc3ccc(C(F)(F)F)cc3)nc21 [Example 394, N,N,7-trimethyl-8-oxo-2-{3-[4-(trifluoromethyl)phenoxy]propyl}-7,8-dihydro-9H-purine-9-carboxamide hydrochloric acid salt]
8 | 52 | 78 | Cc1ccc(OCCCc2ncc3c(n2)n(C(=O)N(C)C)c(=O)n3C)cc1 [Example 396]

More lines, now with the values behind:

Row | SMILES | inhibition at 0.1 µM [%] | IC50 [nM]
9 | COCCCc1ncc2c(n1)n(C)c(=O)n2C(=O)N1CC(c2ccc(C(F)(F)F)cc2)C1 [Example 380, 2-(3-methoxypropyl)-9-methyl-7-({3-[4-(trifluoromethyl)phenyl]azetidin-1-yl}carbonyl)-7,9-dihydro-8H-purine-8-one] | 100 | 8
10 | COCCCc1ncc2c(n1)n(C)c(=O)n2C(=O)N1CC(c2ccccc2)C1 [Example 383] | 65 | 14
11 | COCCCc1ncc2c(n1)n(C)c(=O)n2C(=O)N1CC(Oc2ccccc2)C1 [Example 384] | 8 | > 100
12 | CCOc1cccc(C2CN(C(=O)n3c(=O)n(C)c4nc(CCCOC)ncc43)C2)c1 [Example 387] | 92 | 22
13 | COCCc1ncc2c(n1)n(C)c(=O)n2C(=O)N1CC(c2ccc(C(F)(F)F)cc2)C1 [Example 388, 2-(2-methoxyethyl)-9-methyl-7-({3-[4-(trifluoromethyl)phenyl]azetidin-1-yl}carbonyl)-7,9-dihydro-8H-purine-8-one hydrochloric acid salt] | 100 | 5
14 | CN(C)C(=O)n1c(=O)n(C)c2cnc(CCCOc3cccc(F)c3)nc21 [Example 395] | 78 | 32
15 | Cc1cccc(OCCCc2ncc3c(n2)n(C(=O)N(C)C)c(=O)n3C)c1 [Example 397] | 76 | 32
16 | CN(C)C(=O)n1c(=O)n(C)c2cnc(CCCOc3ccc(F)cc3)nc21 [Example 398] | 84 | 9
17 | CN(C)C(=O)n1c(=O)n(C)c2cnc(CCCOc3cccc(C(F)(F)F)c3)nc21 [Example 399] | 95 | 6
18 | Cn1c(=O)n(C(=O)N2CCC2)c2nc(CCCOc3ccccc3)ncc21 [Example 400] | 88 | 98
19 | Cn1c(=O)n(C(=O)N2CCC2)c2nc(CCCOc3ccc(F)cc3)ncc21 [Example 401, 9-(Azetidin-1-ylcarbonyl)-2-[3-(4-fluorophenoxy)propyl]-7-methyl-7,9-dihydro-8H-purine-8-one] | 99 | 9
